Experiments:
[1] = molecular target: T1, 5-hydroxytryptamine receptor 3B (Mus musculus, UniProt Q9JHJ5); assay: In vitro binding affinity for the 5-hydroxytryptamine 3 receptor was determined with NG-108-15 mouse neuroblastoma-glioma cells
T1 sequence (Q9JHJ5 whole entry): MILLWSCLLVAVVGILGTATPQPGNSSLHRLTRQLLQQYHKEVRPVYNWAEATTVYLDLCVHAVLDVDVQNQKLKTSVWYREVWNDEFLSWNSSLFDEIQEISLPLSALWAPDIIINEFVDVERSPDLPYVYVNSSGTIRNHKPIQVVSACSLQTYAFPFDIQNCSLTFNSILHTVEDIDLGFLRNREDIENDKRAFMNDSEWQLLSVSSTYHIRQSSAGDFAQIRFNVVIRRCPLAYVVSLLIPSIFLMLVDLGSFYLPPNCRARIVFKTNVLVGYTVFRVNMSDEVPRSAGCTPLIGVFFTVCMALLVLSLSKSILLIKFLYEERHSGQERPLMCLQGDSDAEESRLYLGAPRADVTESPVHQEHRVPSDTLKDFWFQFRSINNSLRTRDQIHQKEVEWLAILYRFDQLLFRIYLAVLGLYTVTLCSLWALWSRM

[2] = molecular target: Serotonin 3 (5-HT3) receptor (Rattus norvegicus) (UniProt P35563+Q9JJ16); assay: Tested for inhibition of Bezold-Jarisch (B-J) reflex mediated by 5-hydroxytryptamine 3 receptor in rats after intravenous administration (2.0 ug/kg); type: functional, organism-based
[3] = molecular target: 5-hydroxytryptamine receptor 3A (Mus musculus) (UniProt P23979); assay: In vitro binding affinity for the 5-hydroxytryptamine 3 receptor was determined with NG-108-15 mouse neuroblastoma-glioma cells
Sequence of 5-hydroxytryptamine receptor 3A (Mus musculus) (P23979 whole entry, looked up): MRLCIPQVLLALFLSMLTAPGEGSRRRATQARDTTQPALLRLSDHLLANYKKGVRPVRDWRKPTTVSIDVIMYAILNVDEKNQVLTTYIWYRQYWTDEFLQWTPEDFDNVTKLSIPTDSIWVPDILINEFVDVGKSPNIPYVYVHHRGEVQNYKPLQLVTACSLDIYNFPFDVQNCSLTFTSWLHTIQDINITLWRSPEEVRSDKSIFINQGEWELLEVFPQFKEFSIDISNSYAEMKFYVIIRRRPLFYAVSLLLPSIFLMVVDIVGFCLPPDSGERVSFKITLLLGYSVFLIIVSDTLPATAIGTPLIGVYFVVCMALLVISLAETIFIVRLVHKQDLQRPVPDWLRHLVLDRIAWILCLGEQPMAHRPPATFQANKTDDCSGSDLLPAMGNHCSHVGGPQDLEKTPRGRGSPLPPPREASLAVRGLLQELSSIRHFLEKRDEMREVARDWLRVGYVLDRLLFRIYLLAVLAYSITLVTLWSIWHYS

SMILES | Ki [1] [nM] | inhibition [2] [%] | Ki [3] [nM]
N=C(N)NCc1ccccn1 | 82 | – | –
Cc1csc(CNC(=N)N)n1 | 116 | – | –
CN(Cc1nc(-c2c[nH]c3ccccc23)cs1)C(=N)N | > 1 | – | –
COc1cc(N)c(Cl)cc1C(=O)NC1CN2CCC1CC2 (stereo not drawn) | – | 84 | –
Cc1nccn1CC1CCc2c(c3ccccc3n2C)C1=O (stereo not drawn) | – | 43 | –
N=C(N)NCc1nc(-c2c[nH]c3ccccc23)cs1 | – | 51 | 3.3
Cc1nc[nH]c1Cc1nc(-c2c[nH]c3ccccc23)cs1 | 10 | – | –

— ChEMBL document CHEMBL1124976, “An initial three-component pharmacophore for specific serotonin-3 receptor ligands” (J Med Chem, 1990)
